Experimental data taken from patent US6914045B2, “Glycopeptide antibiotics” (Wyeth Holdings Corporation, priority 2001, dated 2005).
≈ marks a conversion by molar mass, not a printed value. Values belong to the compound of their own block, whether it stands above or below them.

Key:
Test in all cases: in vitro antibacterial evaluation, MIC by broth dilution
Type in all cases: cell-based
Enterococcus sp. = settings: broth dilution, 18 hours at 35° C.
Description: (§1) Methods for in vitro Antibacterial Evaluation (Table 1)
(§2) The minimum inhibitory concentration (MIC), the lowest concentration of the antibiotic which inhibits growth of the test organism, is determined by the broth dilution method using Muller-Hinton II […] (Baltimore Biological Laboratories) following the recommendations of the National Committee for Clinical Laboratory Standards [Methods for dilution antimicrobial susceptibility tests for bacteria that grow aerobically, approved standard M7-A2, National Committee for Clinical Laboratory Standards, Villanova, Pa.].
(§3) An inoculum level of 5×10^5 CFU/mL, and a range of antibiotic concentrations (64-0.06 μg/mL) is used. […] The test organisms include a spectrum of Gram-positive bacteria comprised of Staphylococcus sp., Streptococcus sp. and Enterococcus sp. These organisms include recent clinical isolates that are resistant to methicillin, penicillin and/or vancomycin.

Staphylococcus sp. = tested on: Staphylococcus sp.
Description: as §1, §2, §3

Escherichia coli = settings: 18 hours at 35° C.
Description: as §2, §3

Streptococcus sp. = settings: broth dilution, 18 hours at 35° C.
Description: as §1, §2, §3

[1] = broth dilution, 18 hours at 35° C.

MIC Enterococcus faecalis (ATCC 29212) (Enterococcus sp.; Enterococcus faecalis (ATCC 29212)): >64 µg/mL
MIC Enterococcus faecalis (GC 4552) (Enterococcus sp.; Enterococcus faecalis (GC 4552)): >64 µg/mL
MIC Enterococcus faecalis (ATCC 29212) (Enterococcus sp.): >64 µg/mL
MIC Enterococcus faecalis (GC 2242) (Enterococcus sp.): >64 µg/mL
MIC Enterococcus faecalis (GC 4552) (Enterococcus sp.): >64 µg/mL
MIC Enterococcus faecalis (GC 2242) (Enterococcus sp.; strain GC 2242): >64 µg/mL
MIC Coagulase Negative Staphylococcus (GC 4537) (Staphylococcus sp.; [1]): >64 µg/mL
MIC Coagulase Negative Staphylococcus (GC 4538) (Staphylococcus sp.; [1]): >64 µg/mL
MIC Coagulase Negative Staphylococcus (GC 4547) (Staphylococcus sp.; [1]): >64 µg/mL
MIC Staphylococcus aureus (ATCC 29213) (Staphylococcus sp.; strain ATCC 29213; broth dilution, 18 hours at 35° C.): >64 µg/mL
MIC Staphylococcus aureus (GC 1131) (Staphylococcus sp.; strain GC 1131; broth dilution, 18 hours at 35° C.): >64 µg/mL
MIC Staphylococcus aureus (GC 4535) (Staphylococcus sp.; strain GC 4535; broth dilution, 18 hours at 35° C.): >64 µg/mL
MIC Staphylococcus aureus-SMITH (GC 4536) (Staphylococcus sp.; strain GC 4536; broth dilution, 18 hours at 35° C.): >64 µg/mL
MIC Coagulase Negative Staphylococcus (GC 4537) (Staphylococcus sp.; strain GC 4537; broth dilution, 18 hours at 35° C.): >64 µg/mL
MIC Coagulase Negative Staphylococcus (GC 4538) (Staphylococcus sp.; strain GC 4538; broth dilution, 18 hours at 35° C.): >64 µg/mL
MIC Coagulase Negative Staphylococcus (GC 4547) (Staphylococcus sp.; strain GC 4547; broth dilution, 18 hours at 35° C.): >64 µg/mL
MIC Escherichia coli (GC 4559) (Escherichia coli): >64 µg/mL
MIC Escherichia coli (GC 4560) (Escherichia coli): 8 µg/mL (≈ 5.74 µM)
Structure (SMILES): CCCCCC(=O)OCC1OC(N2C(=N)NCC2C(O)C2NC(=O)C(C(O)C3CNC(=N)N3)NC(=O)C(Cc3ccc(OC4OC(CO)C(OC5OC(CO)C(O)C(O)C5O)C(O)C4O)cc3)NC(=O)C(C(C)c3ccccc3)NC(=O)CNC(=O)C(CO)NC2=O)C(O)C(O)C1O (stereo not drawn) [Example 95, Cyclo[glycyl-β-methylphenylalanyl-O-(4-O-hexojpyranosylhexopyranosyl)tyrosyl-3-(2-iminoimidazolidin-4-yl)seryl-3-[3-(6-O-hexanoylhexopyranosyl)-2-iminoimidazolidin-4-yl]serylseryl]]

MIC Enterococcus faecalis (GC 2242) (Enterococcus sp.): 4 µg/mL (≈ 2.69 µM)
MIC Enterococcus faecalis (GC 2691) (Enterococcus sp.): 2 µg/mL (≈ 1.34 µM)
MIC Enterococcus faecalis (GC 3059) (Enterococcus sp.): 2 µg/mL (≈ 1.34 µM)
MIC Enterococcus faecalis (GC 4552) (Enterococcus sp.): 4 µg/mL (≈ 2.69 µM)
MIC Enterococcus faecalis (ATCC 29212) (Enterococcus sp.; strain ATCC 29212): 4 µg/mL (≈ 2.69 µM)
MIC Enterococcus faecium (GC 2243) (Enterococcus sp.; strain GC 2243): 2 µg/mL (≈ 1.34 µM)
MIC Enterococcus faecalis (GC 4552) (Enterococcus sp.; strain GC 4552): 4 µg/mL (≈ 2.69 µM)
MIC Enterococcus faecalis (GC 4553) (Enterococcus sp.; strain GC 4553): 4 µg/mL (≈ 2.69 µM)
MIC Enterococcus faecalis (GC 4554) (Enterococcus sp.; strain GC 4554): 4 µg/mL (≈ 2.69 µM)
MIC Enterococcus faecium (GC 4556) (Enterococcus sp.; strain GC 4556): 2 µg/mL (≈ 1.34 µM)
MIC Enterococcus faecium (GC 4557) (Enterococcus sp.; strain GC 4557): 2 µg/mL (≈ 1.34 µM)
MIC Enterococcus avium (GC 4558) (Enterococcus sp.; strain GC 4558): 2 µg/mL (≈ 1.34 µM)
MIC Enterococcus faecalis (GC 6189) (Enterococcus sp.; strain GC 6189): 2 µg/mL (≈ 1.34 µM)
MIC Enterococcus faecalis (GC 2242) (Enterococcus sp.; inoculum 5×10^5 CFU/mL, strain GC 2242): 4 µg/mL (≈ 2.69 µM)
MIC Enterococcus faecalis (GC 2691) (Enterococcus sp.; inoculum 5×10^5 CFU/mL, strain GC 2691): 2 µg/mL (≈ 1.34 µM)
MIC Enterococcus faecalis (GC 3059) (Enterococcus sp.; inoculum 5×10^5 CFU/mL, strain GC 3059): 2 µg/mL (≈ 1.34 µM)
MIC Coagulase Negative Staphylococcus (GC 4547) (Staphylococcus sp.; [1]): 4 µg/mL (≈ 2.69 µM)
MIC Coagulase Negative Staphylococcus (GC 4548) (Staphylococcus sp.; [1]): 2 µg/mL (≈ 1.34 µM)
MIC Coagulase Negative Staphylococcus (GC 4549) (Staphylococcus sp.; [1]): 1 µg/mL (≈ 0.672 µM)
MIC Coagulase Negative Staphylococcus (GC 4551) (Staphylococcus sp.; [1]): 4 µg/mL (≈ 2.69 µM)
MIC Coagulase Negative Staphylococcus (GC 6257) (Staphylococcus sp.; [1]): 1 µg/mL (≈ 0.672 µM)
MIC Staphylococcus aureus (ATCC 29213) (Staphylococcus sp.; [1]): 2 µg/mL (≈ 1.34 µM)
MIC Staphylococcus aureus (GC 1131) (Staphylococcus sp.; [1]): 2 µg/mL (≈ 1.34 µM)
MIC Staphylococcus aureus (GC 3051) (Staphylococcus sp.; [1]): 2 µg/mL (≈ 1.34 µM)
MIC Staphylococcus aureus (GC 3053) (Staphylococcus sp.; [1]): 2 µg/mL (≈ 1.34 µM)
MIC Staphylococcus aureus (GC 4541) (Staphylococcus sp.; [1]): 2 µg/mL (≈ 1.34 µM)
MIC Staphylococcus aureus (GC 4542) (Staphylococcus sp.; [1]): 2 µg/mL (≈ 1.34 µM)
MIC Staphylococcus aureus (GC 4544) (Staphylococcus sp.; [1]): 4 µg/mL (≈ 2.69 µM)
MIC Staphylococcus aureus (GC 4545) (Staphylococcus sp.; [1]): 2 µg/mL (≈ 1.34 µM)
MIC Staphylococcus aureus-SMITH (GC 4543) (Staphylococcus sp.; [1]): 2 µg/mL (≈ 1.34 µM)
MIC Staphylococcus aureus (ATCC 29213) (Staphylococcus sp.; broth dilution, 18 hours at 35° C.; strain ATCC 29213): 2 µg/mL (≈ 1.34 µM)
MIC Staphylococcus aureus (GC 1131) (Staphylococcus sp.; broth dilution, 18 hours at 35° C.; strain GC 1131): 2 µg/mL (≈ 1.34 µM)
MIC Staphylococcus aureus (GC 3051) (Staphylococcus sp.; broth dilution, 18 hours at 35° C.; strain GC 3051): 2 µg/mL (≈ 1.34 µM)
MIC Staphylococcus aureus (GC 3053) (Staphylococcus sp.; broth dilution, 18 hours at 35° C.; strain GC 3053): 2 µg/mL (≈ 1.34 µM)
MIC Staphylococcus aureus (GC 4541) (Staphylococcus sp.; broth dilution, 18 hours at 35° C.; strain GC 4541): 2 µg/mL (≈ 1.34 µM)
MIC Staphylococcus aureus (GC 4542) (Staphylococcus sp.; broth dilution, 18 hours at 35° C.; strain GC 4542): 2 µg/mL (≈ 1.34 µM)
MIC Staphylococcus aureus-SMITH (GC 4543) (Staphylococcus sp.; broth dilution, 18 hours at 35° C.; strain GC 4543): 2 µg/mL (≈ 1.34 µM)
MIC Staphylococcus aureus (GC 4544) (Staphylococcus sp.; broth dilution, 18 hours at 35° C.; strain GC 4544): 4 µg/mL (≈ 2.69 µM)
MIC Staphylococcus aureus (GC 4545) (Staphylococcus sp.; broth dilution, 18 hours at 35° C.; strain GC 4545): 2 µg/mL (≈ 1.34 µM)
MIC Coagulase Negative Staphylococcus (GC 4547) (Staphylococcus sp.; broth dilution, 18 hours at 35° C.; strain GC 4547): 4 µg/mL (≈ 2.69 µM)
MIC Coagulase Negative Staphylococcus (GC 4548) (Staphylococcus sp.; broth dilution, 18 hours at 35° C.; strain GC 4548): 2 µg/mL (≈ 1.34 µM)
MIC Coagulase Negative Staphylococcus (GC 4549) (Staphylococcus sp.; broth dilution, 18 hours at 35° C.; strain GC 4549): 1 µg/mL (≈ 0.672 µM)
MIC Coagulase Negative Staphylococcus (GC 4551) (Staphylococcus sp.; broth dilution, 18 hours at 35° C.; strain GC 4551): 4 µg/mL (≈ 2.69 µM)
MIC Coagulase Negative Staphylococcus (GC 6257) (Staphylococcus sp.; broth dilution, 18 hours at 35° C.; strain GC 6257): 1 µg/mL (≈ 0.672 µM)
MIC Streptococcus agalactiae (GC 4564) (Streptococcus sp.): <0.06 µg/mL
MIC Streptococcus pneumoniae (ATCC 6301) (Streptococcus sp.): <0.06 µg/mL
MIC Streptococcus pneumoniae (GC 1894) (Streptococcus sp.): <0.06 µg/mL
MIC Streptococcus pneumoniae (GC 4565) (Streptococcus sp.): <0.06 µg/mL
MIC Streptococcus pyogenes (GC 4563) (Streptococcus sp.): <0.06 µg/mL
MIC Streptococcus pneumoniae (ATCC 6301) (Streptococcus sp.; inoculum 5×10^5 CFU/mL, strain ATCC 6301): <0.06 µg/mL
MIC Streptococcus pneumoniae (GC 1894) (Streptococcus sp.; inoculum 5×10^5 CFU/mL, strain GC 1894): <0.06 µg/mL
MIC Streptococcus pyogenes (GC 4563) (Streptococcus sp.; inoculum 5×10^5 CFU/mL, strain GC 4563): <0.06 µg/mL
MIC Streptococcus agalactiae (GC 4564) (Streptococcus sp.; inoculum 5×10^5 CFU/mL, strain GC 4564): <0.06 µg/mL
MIC Streptococcus pneumoniae (GC 4565) (Streptococcus sp.; inoculum 5×10^5 CFU/mL, strain GC 4565): <0.06 µg/mL
Structure (SMILES): CC(c1ccccc1)C1NC(=O)CNC(=O)C(CO)NC(=O)C(C(O)C2CNC(=N)N2C2OC(CO)C(O)C(O)C2O)NC(=O)C(C(O)C2CNC(=N)N2)NC(=O)C(Cc2ccc(OC3OC(CO)C(OC4OC(CO)C(OCC=C(c5ccccc5)c5ccccc5)C(O)C4O)C(O)C3O)cc2)NC1=O (centres unmarked) [Example 241a]
MIC Staphylococcus haemolyticus (GC 4546) (Staphylococcus sp.; [1]): 2 µg/mL (≈ 1.34 µM)
MIC Staphylococcus haemolyticus (GC 4546) (Staphylococcus sp.; broth dilution, 18 hours at 35° C.; strain GC 4546): 2 µg/mL (≈ 1.34 µM)
